Results: patent US12005051B2, “Topical roflumilast formulation having improved delivery and plasma half life” (ARCUTIS BIOTHERAPEUTICS, inc., priority 2017, dated 2024)
Where two headings read alike, the source gives them in different places. Blank lines part the entries; values can stand above or below the molecule they belong to.

Tests used:
[1] = clinical; settings: human, in vivo, po
Protocol: In addition to the consistent delivery of a suspended active ingredient from a topical product, successful treatment also depends on the elimination kinetics of the active ingredient. After a drug is absorbed into a patient's body, elimination begins thereby reducing the concentration over time. The half-life determines the length of time that the drug will be effective. […] Since the maximum plasma concentration (11.4 ng roflumilast per mL plasma) occurs for roflumilast about 1 hour after oral dosing, mean plasma concentration at the time of the first missed dose (1 day after the most recent dose) will be approximately 5.7 ng/mL (half the 11.4 ng/mL maximum plasma concentration). […] For oral roflumilast, use of a sustained release oral drug delivery system instead of the immediate release tablet studied by Huang, would be an example of extrinsic PK property modification to increase the adherence imperfection forgiveness of the product that would benefit the patient that missed one or more doses of roflumilast.

[2] = roflumilast crystal size by polarized light microscopy, dry and after six weeks storage in solvent blends; assay type: physicochemical; settings: for crystal width: six weeks at room temperature
[3] = dissolution of roflumilast in solvents and solvent:water blends at 25° C.; assay type: physicochemical
Protocol: (§1) 0.0092 grams of roflumilast (Batch A14367P from Interquim S.A.) was weighed into a liquid scintillation vial. An equimolar blend of hexylene glycol (lot 1AC0818, Spectrum) and distilled water was added dropwise with mixing to the vial containing roflumilast to produce a suspension of roflumilast in excess of the solubility limit. An equimolar blend is 86.7% hexylene glycol and 13.3% water on a weight/weight percent basis. After mixing each addition of hexylene glycol:water blend, the tightly capped vial was returned to a water bath set at 25° C. It required 0.7962 grams of equimolar Hexylene Glycol:Water blend to completely dissolve the 0.0092 grams of roflumilast and give a 1.14% roflumilast in equimolar Hexylene Glycol:Water (wt/wt %) solution. 0.0064 grams of roflumilast was added to this sample (labeled 12-3) to form a finely dispersed suspension at 25° C. and the vial was then stored undisturbed at about 15-18° C., protected from the light for six weeks. A sample of the roflumilast crystals was removed from the vial, placed on a microscope slide (with coverslip) and then examined using polarized light microscopy using a 10× objective (FIG. 2, microscope sample 20-3).
0.0111 grams of roflumilast (Batch A14367P from Interquim S.A.) was weighed into a liquid scintillation vial. An equimolar blend of […] (Transcutol P, lot 146063, Gattefosse) and distilled water was added dropwise with mixing to the vial containing roflumilast to produce a suspension of roflumilast in excess of the solubility limit. An equimolar blend is 88.3% DEGEE and 11.7% water on a weight/weight percent basis. After mixing each addition of DEGEE:water blend, the tightly capped vial was returned to a water bath set at 25° C. It required 0.2477 grams of equimolar DEGEE:Water blend to completely dissolve the 0.0111 grams of roflumilast and give a 4.29% roflumilast in equimolar DEGEE:Water (wt/wt %) solution. This sample (labeled 13-1) was a solution of roflumilast at 25° C. and the vial was then stored undisturbed at about 15-18° C., protected from the light for six weeks. Roflumilast crystals precipitated due to the cooler storage temperature. A sample of the roflumilast crystals was removed from the vial, placed on a microscope slide (with coverslip) and then examined using polarized light microscopy using a 10× objective (FIG. 3, microscope sample 20-2).
as §1, with “4×” for “10×”, “4,” for “2,”
0.0180 grams of roflumilast (Batch A14367P from Interquim S.A.) was weighed into a liquid scintillation vial. Polyethylene glycol 400 (lot 1 DE0880, Spectrum) was added dropwise with mixing to the vial containing roflumilast to produce a suspension of roflumilast in excess of the solubility limit. After mixing each addition of polyethylene glycol 400, the tightly capped vial was returned to a water bath set at 25° C. […]

[4] = design: species or system human; settings: in vivo
Protocol: A parallel group, double blind, vehicle-controlled study was performed in which ARQ-151 cream 0.3% (Formulation 3 in Example 5) or ARQ-151 cream 0.15% (Formulation 7) or vehicle cream is applied QD for 84 days to subjects with chronic plaque psoriasis involving between 2 and 20% body surface area (BSA).
A total of approximately 300 subjects were enrolled at approximately 30 study sites in the United States and Canada. Subjects were adult (≥18 y/o) males or females with chronic plaque psoriasis. […] Subjects with an IGA of ‘Mild’ (2) were limited to 20% of total enrollment. Subjects with an IGA of ‘Severe’ (4) were limited to 15% of total enrollment. Subjects had at least 2% and no more than 20% Body Surface Area (BSA) of chronic plaque psoriasis. All psoriasis lesions on a subject were treated including the face, trunk, genitals/skin folds, or limbs (excluding the scalp). The palms and soles were treated but were not counted towards any measurements of efficacy (IGA, BSA, mPASI). For subjects with intertriginous area involvement, and with severity of the intertriginous area lesions at least ‘mild’ (IGA≥2) at Baseline, ‘I-IGA’ score was recorded at weeks 4, 6, 8 and 12. The same IGA used for the primary endpoint (whole body) was also used for ‘intertriginous area lesion IGA score’ (I-IGA), but only intertriginous areas were evaluated for I-IGA, not the rest of the body.
(§2) Blood samples were taken from all subjects at all sites as pre-dose on Day 1 (baseline) and Weeks 4 (Day 29) and 12 (Day 85). The analysis of the PK data collected was performed with a CFR 21 Part 11 compliant software package (Phoenix WinNonlin version 8.1) which is in full compliance with ICH-GCP. Samples from all subjects within the PK population were evaluated. Any subject or data excluded from the PK analysis were identified, along with the reason for exclusion in this PK report. BSA was averaged based on Baseline, Week 2, Week 4, Week 6 and Week 8 measured BSA values, the screening values, Week 12 and Week 16 values, and any other unscheduled visit values were excluded. Four subjects participated in an optional phase at the completion of the study to assess the elimination of roflumilast and the N-oxide at the end of treatment, however only three had quantifiable concentrations of roflumilast and the N-oxide. From the three subjects, the terminal rate constant (lambda z, λz) was determined by the slope of the regression line of the natural log transformed concentrations vs. time data. The terminal half-life (t½) was calculated as: In(2)/λz.
(§3) Concentration values that are reported BLQ (<0.100 for roflumilast and N-oxide) were reported as below limit of quantification (BLQ) in the concentration data listings and considered non-numerical. Nonnumerical values were ignored in the concentration by nominal time summary statistics. Summary statistics (i.e. N, arithmetic mean, SD, CV %, minimum, median, maximum, geometric mean, geometric SD, 95% confidence intervals for both the arithmetic mean and geometric mean) were calculated for plasma concentrations for each analyte, nominal day and dose strength. All concentration and descriptive statistic values were reported to three significant figures.

[5] = optional elimination phase assessment at end of treatment with ARQ-151 cream in psoriasis; assay type: in vivo, human; settings: for half-life: human, plasma
Protocol: as §2, §3

[6] = cited from earlier work; for mean plasma half-life: multiple 0.375 mg doses, immediate release oral roflumilast
[7] = cited from earlier work

- concentration at 1 day [1]: ~5.7 ng/mL
- concentration at 2 days [1]: ~2.8 ng/mL
- concentration at 72 hours [1]: ~1.4 ng/mL
- crystal width ([2]; Sample 21-1, HG:NMP:Water (water mole fraction=1.2)): 0.02 mm
- crystal width ([2]; Sample 21-2, equimolar ethanol:water): 0.02 mm
- crystal width ([2]; Sample 21-3, equimolar PEG 400:water): 0.02 mm
- crystal width ([2]; Sample 21-5, equimolar propylene glycol:water): 0.02 mm
- storage time until fine roflumilast crystals were observed ([3]; 0.28% roflumilast, 88.97% propylene glycol, 10.75% water, initially clear solution, 25° C.): 105 min
- roflumilast concentration in solution ([3]; dimethyl sulfoxide, 25° C.): 28.5%
- roflumilast concentration at complete dissolution ([3]; equimolar DEGEE:Water, 25° C.): 4.29 wt/wt %
- roflumilast concentration at complete dissolution ([3]; equimolar Hexylene Glycol:Water, 25° C.): 1.14 wt/wt %
- roflumilast concentration completely dissolved ([3]; equimolar N-Methyl-2 pyrrolidone:water, 25° C.): 22.85%
- roflumilast concentration at complete dissolution ([3]; polyethylene glycol 400, 25° C.): 3.18%
- mean pre-dose plasma concentration, Day 29 versus Day 85 ([4]; both, human): ≤ 2 fold
- increase of roflumilast plasma pre-dose concentration between the 2-fold increase in dose strength ([4]; both, human, 29 day): about 1.6 fold
- increase of roflumilast plasma pre-dose concentration between the 2-fold increase in dose strength ([4]; both, human, 85 day): about 1.7 fold
- half-life ([5]; topical or ocular, three subjects, end of treatment, topical ARQ-151, read-out: Half-life values (converted)): ~3.6 days
- half-life ([5]; after topical administration of a formulation with self-emulsifying wax blend of dicetyl phosphate and ceteth-10 phosphate and a solvent, read-out: plasma half-life of roflumilast): 3.4 to 3.7 days
SMILES: O=C(Nc1c(Cl)cncc1Cl)c1ccc(OC(F)F)c(OCC2CC2)c1 [roflumilast, N-(3,5-dichloropyrid-4-yl)-3-cyclopropylmethoxy-4-difluoromethoxybenzamid-e]
- roflumilast crystalline growth, comparison ([2]; equimolar N-methyl pyrrolidone:water compared to 12:4:3 (wt/wt/wt) hexylene glycol:N-methyl pyrrolidone:water): Dramatically greater roflumilast crystalline growth
- mean plasma half-life [6]: about 1 day
- mean plasma half-life ([6]; mean of 12 subjects): 25.6 h
- maximum plasma concentration ([6]; multiple 0.375 mg oral doses): 11.4 ng/mL
- time of maximum plasma concentration after oral dosing ([6]; multiple 0.375 mg oral doses): about 1 hour
- plasma half-life ([7]; after intravenous administration in humans): about 15 hours
- plasma half-life ([7]; after oral administration): 17 to 30 h

- mean N-oxide pre-dose plasma concentration relative to parent pre-dose plasma concentration [4]: 5.3-6.2 fold
- mean pre-dose plasma concentration, Day 29 versus Day 85 [4]: ≤ 2 fold
- Half-life values ([5]; three subjects, end of treatment, topical ARQ-151): around 3.6 days
SMILES: O=C(Nc1c(Cl)c[n+]([O-])cc1Cl)c1ccc(OC(F)F)c(OCC2CC2)c1 [roflumilast N-oxide]
